# US12421294B2, “Truncated epiderimal growth factor receptor (EGFRt) for transduced t cell selection” (City of Hope, priority 2009, dated 2025)
# What was measured:
# [1] = test system: CD19CAR^+EGFRt^+IMPDH2dm^+ Line E cells; assay: MPA resistance culture, IMPDH2dm-expressing Line E cells; format: cell-based, human; conditions: 1 uM MPA
# control T cell line = assay: MPA resistance culture, control T cells without IMPDH2dm; format: cell-based, human; conditions: 1 uM MPA, control T cell line lacking IMPDH2dm
smiles,measurement,setting,value
"COc1c(C)c2c(c(O)c1C/C=C(\C)CCC(=O)O)C(=O)OC2 [MPA, mycophenolic acid]",survival and/or proliferation in MPA,[1],not inhibited
same,survival and/or proliferation in MPA,control T cell line,inhibition
